Measured values taken from patent US20110312986A1, “Composition and Method for Treating Overactive Bladder” (ALLERGAN, INC., priority 2010, published 2011).
Like-named read-outs stand apart in the source and are kept apart here. Blank lines part the entries; values can stand above or below the compound they belong to.

Assays:
clinical = conditions: both, human, plasma, oral
[1] = Trospium in cerebrospinal fluid: permeation across the blood-brain barrier (Example 1); assay type: in vivo, human
Protocol: (§1) A single-center, single-blind, randomized, placebo-controlled, parallel group study was conducted to evaluate whether Trospium permeates across the human blood-brain barrier and whether Trospium could cause cognitive impairment.
For cerebrospinal fluid sampling at each pharmacokinetics time point, about 2.5 mL of cerebral spinal fluid was collected on Day 10 at 0 hr, 2 hr, 5 hr, 7 hr, 12 hr, and 24 hr post dose.

[2] = Steady-state plasma pharmacokinetics of Trospium in subjects 65 years or older with overactive bladder symptoms (Example 1); assay type: in vivo, human; conditions: Day 10, 60 mg Trospium daily for 10 days
Protocol: as §1

[3] = for Trospium Ae,0-24 (amount excreted unchanged in urine) / Trospium Ae,0-24/Dose (percentage of dose excreted in urine) / Trospium CLss/F (oral clearance) / Tmax: steady state; for Tmax: Trospium Tmax
[4] = through tubular secretion and glomerular filtration; cited from earlier work
[5] = Neuropsychology testing: HVLT-R and BVMT-R, reliable change index (Example 1); assay type: in vivo, human
Protocol: as §1
For neuropsychology testing, each subject underwent the Hopkins Verbal Learning Test-Revised (HVLT-R) and the Brief Visuospatial Memory Test-Revised (BVMT-R) on Days 0, 9, and 10. Pre-dose (Day 0) and post-dose (Day 10) results on the neuropsychology tests were compared using a reliable change index to assess a change in learning of memory.

[6] = metabolite of Trospium; cited from earlier work
[7] = 60 mg Trospium with 500 mg Metformin
[8] = Glucophage/Sanctura XR regime (co-administered with 500 mg Metformin twice daily), N = 43
[9] = Trospium with Metformin versus Trospium alone
[10] = both, human, plasma, oral, 60 mg
[11] = column headed Glucophage ® Dosage Regime, N = 44, 60 mg Trospium daily for 10 days alone

concentration at 11 hr (clinical): 155 ng/mL | concentration at 15 hr (clinical): 83 ng/mL
SMILES: CN(C)C(=N)N=C(N)N [Metformin, N,N-dimethylimidodicarbonimidic diamide]

SMILES: O=C(OC1CC2CCC(C1)[N+]21CCCC1)C(O)(c1ccccc1)c1ccccc1.[Cl-] (stereo not shown) [Trospium, 3-(2-hydroxy-2,2-diphenylacetoxy) spiro[bicyclo[3.2.1]octane-8,1′-pyrrolidin]-1′-ium chloride]
Trospium concentration in cerebrospinal fluid ([1]; 0 hr post dose, Day 10, 60 mg Trospium daily for 10 days): <40 pg/mL | Trospium concentration in cerebrospinal fluid ([1]; 5 hr post dose, Day 10, 60 mg Trospium daily for 10 days): <40 pg/mL | Trospium concentration in cerebrospinal fluid ([1]; 24 hr post dose, Day 10, 60 mg Trospium daily for 10 days): <40 pg/mL | Trospium in cerebrospinal fluid, all 72 samples ([1]; Day 10, 0 to 24 hr post dose, detectable range 40 pg/mL): < 40 pg/mL | concentration at 5 h ([1]; both sexes, human, cerebrospinal fluid, 5 hr post dose, Day 10, 60 mg Trospium daily for 10 days): < 0.04 ng/mL | Crossing of the blood-brain barrier ([1]; conclusion from the cerebrospinal fluid levels): does not cross the blood-brain barrier | Trospium concentration in plasma ([2]; 0 hr post dose): 522 pg/mL | Trospium concentration in plasma ([2]; 5 hr post dose): 925 pg/mL | Trospium concentration in plasma ([2]; 24 hr post dose): 649 pg/mL | Time of peak plasma concentration post-dosing [2]: 5 h | AUC(0-t) ([2]; both sexes, human, plasma, linear trapezoidal rule, read-out: AUC0-24, steady state): 18500 ng·h/mL | Cmax ([2]; both sexes, human, plasma, read-out: Peak plasma concentration (Cmax)): 0.925 ng/mL | Reduction of steady-state AUC0-24 of Trospium by co-administered Metformin [3, 7]: ~29% | Reduction of steady-state Cmax of Trospium by co-administered Metformin [3, 7]: approximately 34% | Trospium Ae,0-24 (amount excreted unchanged in urine) [3, 8]: 0.281 ± 0.156 mg | Trospium Ae,0-24/Dose (percentage of dose excreted in urine) [3, 8]: 0.468 ± 0.260% | Trospium CLss/F (oral clearance) [3, 8]: 4830 ± 2320 L/h | Percentage Ratio and 90% CI of the Geometric Mean of AUC0-24 (Combination/Alone) [3, 9]: 70.8 (66.2-75.7) % | Percentage Ratio and 90% CI of the Geometric Mean of Cmax (Combination/Alone) [3, 9]: 66.3 (61.0-72.0) % | AUC(0-t) [3, 10]: 22.7 ng·h/mL | Cmax [3, 10]: 1.87 ng/mL | concentration at 0 hr [3, 10]: 0.676 ng/mL | concentration at 1 hr [3, 10]: 0.831 ng/mL | concentration at 2 hr [3, 10]: 1.36 ng/mL | concentration at 3 hr [3, 10]: 1.57 ng/mL | concentration at 4 hr [3, 10]: 1.54 ng/mL | concentration at 5 hr [3, 10]: 1.53 ng/mL | concentration at 6 hr [3, 10]: 1.66 ng/mL | concentration at 8 hr [3, 10]: 1.12 ng/mL | concentration at 10 hr [3, 10]: 0.878 ng/mL | concentration at 12 hr [3, 10]: 0.781 ng/mL | concentration at 16 hr [3, 10]: 0.676 ng/mL | concentration at 24 hr [3, 10]: 0.655 ng/mL | Tmax ([3]; both, human, plasma, oral, 60 mg, column headed Glucophage ® Dosage Regime, N = 44, 60 mg Trospium daily for 10 days alone): ~4.42 h | Tmax ([3]; both, human, plasma, oral, Glucophage/Sanctura XR regime (co-administered with 500 mg Metformin twice daily), N = 43): ~4 h | CL renal ([3]; both, human, urine and plasma, oral, 60 mg): 307 mL/min | Trospium Ae,0-24 (amount excreted unchanged in urine) [3, 11]: 0.400 ± 0.247 mg | Trospium Ae,0-24/Dose (percentage of dose excreted in urine) [3, 11]: 0.667 ± 0.411% | Trospium CLss/F (oral clearance) [3, 11]: 3510 ± 1920 L/h | Reduction in percentage of Trospium dose excreted in urine on co-administration of Metformin ([3]; p value<0.0001): 30% | Share of the absorbed dose excreted unchanged in the urine [4]: 60% | Net drug effect on cognition (HVLT-R, BVMT-R) ([5]; Day 0 versus Day 10, one subject deteriorated on total recall in both tests): no meaningful net drug effect on cognition | Cognitive impairment or memory loss ([5]; conclusion from the neuropsychology testing): does not cause cognitive impairment or memory loss

SMILES: OC1C[C@H]2CC[C@@H](C1)[N+]21CCCC1 (stereo partly shown) [azoniaspironortropanol]
Pharmacological activity of the metabolite [6]: pharmacologically inactive
